Source: patent publication US4120894A, “Sulfo-m-phenylenebis(sulfonylimino)diisophthalic acid salts” (American Cyanamid Company, priority 1977, dated 1978)
Structures can show the parent of a compound that is named as a salt.

What was measured:
[1] = tested on: hereditary angioneurotic edema; conditions: literature report; cited from earlier work
complement system = conditions: literature report; cited from earlier work
shunt pathway = test: Test, Code 036 (C-Shunt inhibitor), lysis of human erythrocytes in autologous serum via shunt pathway activated by cobra venom factor; type: cell-based; conditions: activity in wells, two-fold serial dilution assay; higher well number indicates higher activity
From the text: (§1) An active inhibitor protects C2 C1 and C4; (ii) Test, Code 035 (C3-C9 inhibitor) -- This test determines the ability of thee late components of human complement (C3-C9) to lyse EAC 142 in the presence of appropriate dilutions of the test compound. An active inhibitor protects EAC 142 from lysis by human C3-C9; (iii) Test, Code 036 (C-Shunt inhibitor) -- In this test human erythrocytes rendered fragile are lysed in autologous serum via the shunt pathway activated by cobra venom factor in the present of appropriate dilutions of the test compound. Inhibition of the shunt pathway results in failure of lysis; (iv) Forssman Vasculitis Test -- Here, the well known complement dependent lesion, Forssman vasculitis, is produced in guinea pigs by intradermal injection of rabbit anti-Forssman antiserum. […]

activated human C1 = test: Test, Code 026 (C1 inhibitor); type: biochemical; conditions: activity in wells, two-fold serial dilution assay; higher well number indicates higher activity
From the text: as §1

whole complement = test: Complement Level Reduction Test (serum of dosed guinea pigs, capillary tube assay); type: in vivo; conditions: 200 mg/kg i.p.
human serum complement = conditions: in vitro and in vivo, judged by reduction in total hemolytic complement activity; cited from earlier work

Molecule	treatment of hereditary angioneurotic edema [1]	anticomplementary effect / complement inhibition (complement system)	further results
Cc1ccc(C(=O)Nc2ccc(S(=O)(=O)O)c3cc(S(=O)(=O)O)cc(S(=O)(=O)O)c23)cc1NC(=O)c1cccc(NC(=O)Nc2cccc(C(=O)Nc3cc(C(=O)Nc4ccc(S(=O)(=O)O)c5cc(S(=O)(=O)O)cc(S(=O)(=O)O)c45)ccc3C)c2)c1 [Suramin]	used with success	competitive inhibitor of the complement system	
heparin		anticomplementary effect	
NCCCCCC(=O)O [epsilon-aminocaproic acid]	used with success		
Nc1ccc2cc(S(=O)(=O)O)cc(O)c2c1N=Nc1ccc(NC(=O)Nc2ccc(N=Nc3c(N)ccc4cc(S(=O)(=O)O)cc(O)c34)c(S(=O)(=O)O)c2)cc1S(=O)(=O)O [chlorazol fast pink, 3,3'-ureylenebis-[6-(2-amino-8-hydroxy-6-sulfo-1-naphthylazo)]benzenesulfonic acid, tetrasodium salt]		anticomplementary effect	
O=C(O)c1cc(NS(=O)(=O)c2cc(S(=O)(=O)O)cc(S(=O)(=O)Nc3cc(C(=O)O)cc(C(=O)O)c3)c2)cc(C(=O)O)c1 [5,5'[5-Sulfo-m-phenylenebis(sulfonylimino)]diisophathalic acid sodium salt, compound with ethanol (1:1)]			Shunt Inhibition 036 Wells (shunt pathway): +1 Wells; C1 026 Wells (activated human C1): +4 Wells; In Vivo Activity (Guinea Pig) % Inhibition, Intraperitoneal, 30 minutes (whole complement; 30 min): -44%; In Vivo Activity (Guinea Pig) % Inhibition, Intraperitoneal, 60 minutes (whole complement; 60 min): -42%; In Vivo Activity (Guinea Pig) % Inhibition, Intraperitoneal, 120 minutes (whole complement; 120 min): -49%
pentosan-poly-sulfoester			anticomplementary activity on human serum (human serum complement): anticomplementary activity on human serum both in vitro and in vivo
NC[C@H]1CC[C@H](C(=O)O)CC1 [tranexamic acid]	used with success		
